For orientation: MIC means the lowest concentration that inhibits growth of the organism. A low value points to a more susceptible organism.

Protective activity and MIC data for 26 compounds are collected here from patent US4663327A, “1-heteroaryl-4-aryl-pyrazolin-5-ones” (priority 1984, dated 1987).

SMILES strings stand for the structures. Converted amounts (≈) assume the structure as drawn.

One assay concerns Pyricularia oryzae. Format: in vivo. The following applies: rice, sprayed, disease infestation 4 days after inoculation.
The subject of a further assay is Lentinus tigrinus. Nature of the assay: MIC on fungi in agar. The following applies: 336 h.
The subject of another assay is Aureobasidium pullulans. Kind of assay: MIC on fungi in agar. Conditions: 336 h.
In another assay the test system is Coniophora puteana. Kind of assay: MIC on fungi in agar. The following applies: 336 h.
Another assay has as its system Chaetomium globosum. Kind of assay: MIC on fungi in agar. Conditions: 336 h.
Another assay has as its system Aspergillus niger. Kind of assay: MIC on fungi in agar. The following applies: 336 h.
A further assay has as its system Trichoderma viride. Nature of the assay: MIC on fungi in agar. Conditions: 336 h.
The test system of another assay is Polyporus versicolor. Nature of the assay: MIC on fungi in agar. Conditions: Trametes versicolor, 336 h.
In the next assay the test system is Alternaria tenuis. Nature of the assay: MIC on fungi in agar. Conditions: Alternaria alternata, 336 h.
The subject of the next assay is Sclerophoma pityophila. Kind of assay: MIC on fungi in agar. Conditions: Sydowia polyspora, 336 h.
For the next assay, the system named is Penicillium glaucum. Kind of assay: MIC on fungi in agar. Conditions: 336 h.
A further assay concerns Botrytis cinerea. Kind of assay: Botrytis test (BEAN)/protective. Format: in vivo. Conditions: sprayed, infected spots on leaves evaluated 3 days after inoculation. Here is the method:
Botrytis test (BEAN)/protective Solvent: 4.7 parts by weight of acetone Emulsifier: 0.3 parts by weight alkyl aryl polyglycol ether To produce a suitable preparation of active compound, 1 pat by weight of active compound is mixed with the stated amounts of solvent and emulsifier, and the concentrate is diluted with water to the desired concentration. To test for protective activity, young plants are sprayed with the preparation of active compound until dripping wet. After the spray coating has dried on, 2 small pieces of agar covered with Botrytis cinerea are placed on each leaf. The inoculated plants are placed in a darkened humidity chamber at 20° C. 3 days after the inoculation, the size of the infected spots on the leaves is evaluated.

The test system of the next assay is Leptosphaeria nodorum. Nature of the assay: Leptosphaeria nodorum test (wheat)/protective. Format: in vivo. Conditions: sprayed, evaluation 10 days after inoculation. Here is the method:
Leptosphaeria nodorum test (wheat)/protective Solvent: 100 parts by weight of dimethylformamide Emulsifier: 0.25 parts by weight of alkylaryl polyglycol ether To produce a suitable preparation of active compound, 1 part by weight of active compound is mixed with the stated amounts of solvent and emulsifier, and the concentrate is diluted with water to the desired concentration. To test for protective activity, young plants are sprayed with the preparation of active compound until dew-moist. After the spray coating has dried on, the plants are sprayed with a conidia suspension of Leptosphaeria nodorum. The plants remain for 48 hours in an incubation cabinet at 20° C. and 100% relative atmospheric humidity. The plants are placed in a greenhouse at a temperature of about 15° C. and a relative atmospheric humidity of about 80%. Evaluation is effected 10 days after the inoculation.

For another assay, the system named is Cochliobolus sativus. Kind of assay: Cochliobolus sativus test (barley)/protective. Format: in vivo. The following applies: sprayed, evaluation 7 days after inoculation. Here is the method:
Cochliobolus sativus test (barley)/protective Solvent: 100 parts by weight of dimethylformamide Emulsifier: 0.25 parts by weight of alkylaryl polyglycol ether To produce a suitable preparation of active compound, 1 part by weight of active compound is mixed with the stated amounts of solvent and emulsifier, and the concentrate is diluted with water to the desired concentration. To test for protective activity, young plants are sprayed with the preparation of active compound until dew-moist. After the spray coating has dried on, the plants are sprayed with a conidia suspension of Cochliobolus sativus. The plants remain in an incubation cabinet for 48 hours at 20° C. and 100% relative atmospheric humidity. The plants are placed in a greenhouse at a temperature of about 20° C. and a relative atmospheric humidity of about 80%. Evaluation is carried out 7 days after the inoculation.

Method for Alternaria tenuis: (§1) After storage for 2 weeks at 28° C. and 60 to 70% relative atmospheric humidity, the MIC is determined.
Method for Aspergillus niger: as §1
Method for Aureobasidium pullulans: as §1
Method for Chaetomium globosum: as §1
Method for Coniophora puteana: as §1
Method for Lentinus tigrinus: as §1
Method for Penicillium glaucum: as §1
Method for Polyporus versicolor: as §1
Method for Sclerophoma pityophila: as §1
Method for Trichoderma viride: as §1

On to `Cc1cc(-n2[nH]cc(-c3ccc(C(F)(F)F)cc3)c2=O)cc(C)n1` [Example 80], for which the protective activity result in the assay with Pyricularia oryzae is “clearly superior activity compared with the prior art”.

On to `O=c1c(-c2ccc(Cl)cc2)c[nH]n1-c1ncccn1` [Example 85, 1-pyrimid-2-yl-4-(4-chlorophenyl)-pyrazolin-5-one], for which the minimum inhibitory concentration (MIC) with Lentinus tigrinus amounted to 7.5 µg/mL (≈ 27.5 µM); against Aureobasidium pullulans, 50 µg/mL (≈ 183 µM); in the assay with Coniophora puteana, 3.5 µg/mL (≈ 12.8 µM); against Chaetomium globosum it was 1 µg/mL (≈ 3.67 µM); against Aspergillus niger, 5 µg/mL (≈ 18.3 µM); with Trichoderma viride, 100 µg/mL (≈ 367 µM). In addition, the minimal inhibitory concentration (MIC) against Polyporus versicolor worked out at 5 µg/mL (≈ 18.3 µM); in the assay on Alternaria tenuis, 50 µg/mL (≈ 183 µM); with Sclerophoma pityophila it was 20 µg/mL (≈ 73.3 µM); in the assay with Penicillium glaucum, 10 µg/mL (≈ 36.7 µM).

Consider `O=c1c(-c2c(F)cccc2Cl)c[nH]n1-c1ncccn1` [Example 87], for which, in the assay with Botrytis cinerea, the protective activity result was “clearly superior activity compared with the prior art”.

With `O=c1c(-c2ccccc2Cl)c[nH]n1-c1ccccn1` [Example 7], in the assay on Pyricularia oryzae, the protective activity entry is recorded as “clearly superior activity compared with the prior art”.

Take `O=c1c(-c2ccc(Cl)cc2)c[nH]n1-c1ccccn1` [Example 9]: the protective activity entry in the assay with Leptosphaeria nodorum and in the assay with Cochliobolus sativus was “clearly superior activity compared with the prior art” in each case.

Take `O=c1c(-c2ccc(C(F)(F)F)cc2)c[nH]n1-c1ccccn1` [Example 25]: the protective activity result with Pyricularia oryzae is recorded as “clearly superior activity compared with the prior art”.

For `O=c1c(-c2ccc(Cl)cc2Cl)c[nH]n1-c1ncccn1` [Example 88], the protective activity result in the assay with Botrytis cinerea was “clearly superior activity compared with the prior art”.

For `Cc1[nH]n(-c2ncccn2)c(=O)c1-c1ccccc1` [Example 106], the protective activity result in the assay on Leptosphaeria nodorum was “clearly superior activity compared with the prior art”.

On to `Cc1ccc(-c2c[nH]n(-c3cc(C)c4ccccc4n3)c2=O)cc1` [Example 68], for which the protective activity entry in the assay on Pyricularia oryzae is recorded as “clearly superior activity compared with the prior art”.

For the compound `O=c1c(-c2ccc(Cl)c(Cl)c2)c[nH]n1-c1ncccn1` [Example 89], in the assay on Botrytis cinerea, the protective activity result is given as “clearly superior activity compared with the prior art”.

Consider `COc1ccccc1-c1c[nH]n(-c2ncccn2)c1=O` [Example 90], for which the MIC against Lentinus tigrinus stood at 100 µg/mL (≈ 373 µM); against Aureobasidium pullulans, 75 µg/mL (≈ 280 µM); with Coniophora puteana it was 5 µg/mL (≈ 18.6 µM); against Chaetomium globosum it was 15 µg/mL (≈ 55.9 µM); in the assay with Aspergillus niger, 35 µg/mL (≈ 130 µM); in the assay with Trichoderma viride, 150 µg/mL (≈ 559 µM). In addition, the MIC came out at 10 µg/mL (≈ 37.3 µM) against Polyporus versicolor, 75 µg/mL (≈ 280 µM) in the assay on Alternaria tenuis, 15 µg/mL (≈ 55.9 µM) with Sclerophoma pityophila and 35 µg/mL (≈ 130 µM) against Penicillium glaucum.

For the compound `COc1ccc(-c2c[nH]n(-c3ccccn3)c2=O)cc1` [Example 15], the MIC with Lentinus tigrinus was determined as 50 µg/mL (≈ 187 µM); in the assay with Aureobasidium pullulans, 50 µg/mL (≈ 187 µM); against Coniophora puteana it was 5 µg/mL (≈ 18.7 µM); with Chaetomium globosum, 0.5 µg/mL (≈ 1.87 µM); with Aspergillus niger, 20 µg/mL (≈ 74.8 µM); in the assay with Trichoderma viride, 1000 µg/mL (≈ 3740 µM). Moreover, the MIC against Polyporus versicolor is 20 µg/mL (≈ 74.8 µM); against Alternaria tenuis, 50 µg/mL (≈ 187 µM); in the assay on Sclerophoma pityophila it was 50 µg/mL (≈ 187 µM); in the assay with Penicillium glaucum it was 75 µg/mL (≈ 281 µM). The protective activity entry in the assay on Leptosphaeria nodorum is on record as “clearly superior activity compared with the prior art”.

For the compound `O=c1c(-c2ccccc2Cl)c[nH]n1-c1ncccn1` [Example 84], the MIC against Lentinus tigrinus is 50 µg/mL (≈ 183 µM); against Aureobasidium pullulans it was 20 µg/mL (≈ 73.3 µM); in the assay with Coniophora puteana, 2 µg/mL (≈ 7.33 µM); in the assay on Chaetomium globosum, 1.5 µg/mL (≈ 5.5 µM); with Aspergillus niger it was 10 µg/mL (≈ 36.7 µM); against Trichoderma viride, 35 µg/mL (≈ 128 µM). The MIC against Polyporus versicolor amounted to 35 µg/mL (≈ 128 µM); in the assay on Alternaria tenuis, 50 µg/mL (≈ 183 µM); against Sclerophoma pityophila, 10 µg/mL (≈ 36.7 µM); in the assay with Penicillium glaucum, 20 µg/mL (≈ 73.3 µM). Moreover, the protective activity entry in the assay with Pyricularia oryzae and in the assay with Botrytis cinerea was “clearly superior activity compared with the prior art” throughout.

`O=c1c(-c2cccc(C(F)(F)F)c2)c[nH]n1-c1ccccn1` [Example 24]: the protective activity result in the assay on Leptosphaeria nodorum and with Cochliobolus sativus was “clearly superior activity compared with the prior art” throughout.

Consider `O=c1c(-c2ccccc2F)c[nH]n1-c1ccccn1` [Example 5], for which the MIC in the assay with Lentinus tigrinus came to 20 µg/mL (≈ 78.4 µM); in the assay with Aureobasidium pullulans, 20 µg/mL (≈ 78.4 µM); with Coniophora puteana, 2 µg/mL (≈ 7.84 µM); in the assay on Chaetomium globosum, 0.5 µg/mL (≈ 1.96 µM); in the assay with Aspergillus niger, 3.5 µg/mL (≈ 13.7 µM); against Trichoderma viride, 35 µg/mL (≈ 137 µM). The MIC with Polyporus versicolor is 7.5 µg/mL (≈ 29.4 µM); against Alternaria tenuis it was 20 µg/mL (≈ 78.4 µM); against Sclerophoma pityophila it was 15 µg/mL (≈ 58.8 µM); in the assay with Penicillium glaucum it was 5 µg/mL (≈ 19.6 µM). Moreover, the protective activity result with Leptosphaeria nodorum and in the assay with Cochliobolus sativus was “clearly superior activity compared with the prior art” each time.

As to `O=c1c(-c2ccc(SC(F)(F)F)cc2)c[nH]n1-c1ccccn1` [Example 19], the protective activity result in the assay with Leptosphaeria nodorum is “clearly superior activity compared with the prior art”.

Consider `Cc1ccccc1-c1c[nH]n(-c2ncc(Cl)cn2)c1=O` [Example 111], for which, in the assay with Botrytis cinerea, the protective activity result was “clearly superior activity compared with the prior art”.

On to `O=c1c(-c2c(F)cccc2Cl)c[nH]n1-c1ccccn1` [Example 11], for which the protective activity result in the assay on Pyricularia oryzae and in the assay on Botrytis cinerea was “clearly superior activity compared with the prior art” each time.

Take `O=c1c(-c2cc(C(F)(F)F)cc(C(F)(F)F)c2)c[nH]n1-c1ncccn1` [Example 104]: the protective activity result with Pyricularia oryzae is reported as “clearly superior activity compared with the prior art”.

On to `O=c1c(-c2ccccc2Br)c[nH]n1-c1ncccn1` [Example 86], for which the minimum inhibitory concentration (MIC) turned out to be 2 µg/mL (≈ 6.31 µM) in the assay with Lentinus tigrinus; 20 µg/mL (≈ 63.1 µM) in the assay on Aureobasidium pullulans; 5 µg/mL (≈ 15.8 µM) in the assay on Coniophora puteana; 1 µg/mL (≈ 3.15 µM) in the assay with Chaetomium globosum; 10 µg/mL (≈ 31.5 µM) in the assay with Aspergillus niger; 35 µg/mL (≈ 110 µM) against Trichoderma viride. Moreover, the MIC in the assay on Polyporus versicolor came out at 2 µg/mL (≈ 6.31 µM); in the assay on Alternaria tenuis it was 20 µg/mL (≈ 63.1 µM); in the assay with Sclerophoma pityophila it was 10 µg/mL (≈ 31.5 µM); in the assay on Penicillium glaucum it was 50 µg/mL (≈ 158 µM).

Turning to `Cc1cc(-n2[nH]cc(-c3ccc(C(F)(F)F)cc3)c2=O)nc(C)n1` [Example 122], the protective activity entry with Pyricularia oryzae was “clearly superior activity compared with the prior art”.

For the compound `O=c1c(-c2ccccc2)c[nH]n1-c1ncccn1` [Example 81, 1-pyrimid-2-yl-4-phenyl-pyrazolin-5-one], the MIC against Lentinus tigrinus came to 5 µg/mL (≈ 21 µM); against Aureobasidium pullulans, 50 µg/mL (≈ 210 µM); against Coniophora puteana it was 0.5 µg/mL (≈ 2.1 µM); against Chaetomium globosum, 3.5 µg/mL (≈ 14.7 µM); against Aspergillus niger, 10 µg/mL (≈ 42 µM); with Trichoderma viride it was 75 µg/mL (≈ 315 µM). The MIC in the assay with Polyporus versicolor amounted to 2 µg/mL (≈ 8.39 µM); in the assay on Alternaria tenuis, 75 µg/mL (≈ 315 µM); in the assay with Sclerophoma pityophila it was 7.5 µg/mL (≈ 31.5 µM); against Penicillium glaucum, 50 µg/mL (≈ 210 µM).

Turning to `COc1ccc(-c2c[nH]n(-c3ncccn3)c2=O)cc1` [Example 91], the MIC stood at 100 µg/mL (≈ 373 µM) against Lentinus tigrinus; 150 µg/mL (≈ 559 µM) in the assay on Aureobasidium pullulans; 5 µg/mL (≈ 18.6 µM) against Coniophora puteana; 20 µg/mL (≈ 74.6 µM) in the assay with Chaetomium globosum; 50 µg/mL (≈ 186 µM) in the assay with Aspergillus niger; 200 µg/mL (≈ 746 µM) against Trichoderma viride. The MIC against Polyporus versicolor was found to be 20 µg/mL (≈ 74.6 µM); with Alternaria tenuis, 100 µg/mL (≈ 373 µM); with Sclerophoma pityophila it was 15 µg/mL (≈ 55.9 µM); in the assay on Penicillium glaucum, 10 µg/mL (≈ 37.3 µM).

For `O=c1c(-c2cc(C(F)(F)F)ccc2Cl)c[nH]n1-c1ccccn1` [Example 26], the protective activity entry in the assay with Leptosphaeria nodorum and in the assay with Cochliobolus sativus was “clearly superior activity compared with the prior art” in each case.

In the case of `Cc1ccccc1-c1c[nH]n(-c2ncccn2)c1=O` [Example 96], the protective activity result in the assay with Botrytis cinerea was “clearly superior activity compared with the prior art”.

Consider `O=c1c(-c2ccc(Cl)cc2Cl)c[nH]n1-c1ccccn1` [Example 12], for which the protective activity result in the assay with Botrytis cinerea and with Cochliobolus sativus was “clearly superior activity compared with the prior art” throughout.
